Drawing on ChEMBL document CHEMBL1157876, “Isomeric tropane alkaloids from the aerial parts of Schizanthus tricolor” (J Nat Prod, 2010), this text covers IC50 and CC50 for five compounds.

For one series, the system named is Plasmodium falciparum. Briefly: Antimalarial activity against chloroquine and pyrimethamine-resistant Plasmodium falciparum K1 infected in human erythrocytes after 72 hrs by spectrophotometry based Malstat method. The series is classed as functional, organism-based. The following applies: K1, 72 h.
A short description of series [1]: Cytotoxicity against human MRC5 SV2 cells after 72 hrs by resazurin dye reduction assay. The format is cell-based. On the technique in general: Alamar Blue is a resazurin reagent that responds to reducing activity.

Usually IC50 stands for the concentration that gives 50% inhibition. A lower IC50 goes with inhibition by little substance. With `COC(=O)/C(C)=C/C(=O)O[C@@H]1C[C@H]2C[C@H](OC(=O)C=C(C)C)[C@H](C1)N2C`, half-maximal inhibition in the series on Plasmodium falciparum (IC50) was put at 63.5 µM.

The CC50 is the concentration at which the toxic effect on the cells reaches its halfway point. A high value points to lower toxicity to the cells. In series [1], `C=C(CC(=O)O[C@@H]1C[C@H]2C[C@H](OC(=O)C=C(C)C)[C@H](C1)N2C)C(=O)OC` gave a CC50 at 72 h above 64 µM. In the series on Plasmodium falciparum, this compound gave a 50% inhibitory concentration (IC50) of 22.8 µM. On to `C/C=C(/C)C(=O)O[C@H]1C[C@@H]2C[C@@H](OC(=O)/C=C(\C)C(=O)OC)C[C@@H]1N2C`, for which the CC50 at 72 h in series [1] was above 64 µM. In the series with Plasmodium falciparum, this compound gave an IC50 of 24.8 µM. Taken in the same sequence, the figures for `C/C=C(\C)C(=O)O[C@H]1C[C@@H]2C[C@@H](OC(=O)/C=C(\C)C(=O)OC)C[C@@H]1N2C` were above 64 µM and 36 µM. In the case of `CCN(CC)Cc1cc(Nc2ccnc3cc(Cl)ccc23)ccc1O`, in the series with Plasmodium falciparum, the IC50 was below 0.25 µM.
